Some test systems named below: UO-31 renal; HOP-92 NSCLC; 786-0 renal; HT29 colon; HOP-62 NSCLC; OVCAR-5 ovarian; MDA-MB-231 breast; BT-549 breast; DU-145 prostate; MDA-MB-435.
What all share (assay): NCI tumour cell line growth inhibition, 48 h

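Five concentrations, 48 hours, 96-well plates. At the GI50, growth is halved. TGI denotes the concentration required for complete inhibition of growth.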 Where a SMILES comes first, the peptide text is derived from it. Bridges are numbered along the chain shown (N, C = ends). Roman numbers before positions name the chains, in order. [ ]: non-standard residue; d: D form. The star is where a group is joined. Quinoxaline2carbonyl = O=C(c1cnc2ccccc2n1)*; NMeV = CN[CH](C(=O)O)C(C)C; NMeC = CN[CH](CS)C(=O)O

For `CN1CCN(CC(O)COc2c(Br)c(Br)c(Br)c3c2OC(C)(C)C3)CC1` (stereo unspecified), the GI50 was 9.24 µM in the assay on UO-31 renal; 3.1 µM in the assay on HOP-92 NSCLC; 3.08 µM with 786-0 renal; 2.16 µM in the assay on HT29 colon; 4.26 µM in the assay on HOP-62 NSCLC; 17.7 µM in the assay with OVCAR-5 ovarian. For the same compound, the values for the GI50 in the assay on MDA-MB-231 breast, in the assay with BT-549 breast and in the assay with DU-145 prostate were 2.56 µM, 10.6 µM and 11.8 µM, respectively. Also, the TGI turned out to be 31 µM with UO-31 renal; 12.2 µM in the assay with HOP-92 NSCLC; 14.6 µM with 786-0 renal; 4.54 µM with HT29 colon; 25.1 µM with HOP-62 NSCLC; 43.7 µM in the assay with OVCAR-5 ovarian. Moreover, the TGI in the assay with MDA-MB-231 breast turned out to be 6.8 µM; in the assay with BT-549 breast, 26.4 µM; in the assay with DU-145 prostate, 24.5 µM.
On to `CCO/C=C1\N=C(c2ccccc2Br)OC1=O`, for which the TGI in the assay with UO-31 renal, in the assay with HOP-92 NSCLC, in the assay with 786-0 renal, with HT29 colon, in the assay on HOP-62 NSCLC and in the assay with OVCAR-5 ovarian was greater than 100 µM throughout.
In the case of `COc1cc(-c2cc(-c3cc([N+](=O)[O-])c(/C=N/NC(=O)c4ccncc4)o3)ccc2OC)ccc1C`, the TGI in the assay on HOP-92 NSCLC, with 786-0 renal, with HT29 colon, in the assay with HOP-62 NSCLC and in the assay on OVCAR-5 ovarian was greater than 100 µM in each case.
`CCOC(=O)C(=O)Nc1cc(Cl)ccc1Cl`: the TGI in the assay on UO-31 renal, in the assay on HOP-92 NSCLC, in the assay on 786-0 renal, in the assay on HT29 colon, in the assay with HOP-62 NSCLC and in the assay on OVCAR-5 ovarian was greater than 100 µM in each case.
On to `COc1cc2nc(NCCCCCNC(=O)c3ccco3)nc(N)c2cc1OC`, for which the TGI in the assay with UO-31 renal was greater than 100 µM; in the assay on HOP-92 NSCLC it was 42 µM; in the assay with 786-0 renal, 49 µM; with HT29 colon it was greater than 100 µM; in the assay with HOP-62 NSCLC, 61.3 µM; in the assay with OVCAR-5 ovarian, greater than 100 µM.
As for `COc1ccc(C(Cl)=C(c2ccc(OCCN(C)C)cc2)c2ccc(OCCN(C)C)cc2)cc1`, the TGI with UO-31 renal came to 3.31 µM; in the assay with HOP-92 NSCLC, 6.1 µM; in the assay with 786-0 renal it was 2.53 µM; in the assay on HT29 colon, 3 µM; in the assay with HOP-62 NSCLC, 10.4 µM; in the assay with OVCAR-5 ovarian, 3.3 µM.
With `COCCOCOc1ccc(OCOCCOC)c2c1C(=O)c1ccccc1C2=O`, the TGI in the assay on UO-31 renal, in the assay with HOP-92 NSCLC, in the assay on 786-0 renal, with HT29 colon, in the assay with HOP-62 NSCLC and with OVCAR-5 ovarian was greater than 100 µM in each case.
Consider `Fc1cccc(C2SCc3nc4ccccc4n32)c1F` (stereo unspecified), for which the TGI in the assay with UO-31 renal was greater than 100 µM; in the assay with HOP-92 NSCLC it was 85 µM; with 786-0 renal it was greater than 100 µM; with HT29 colon it was greater than 100 µM; in the assay with HOP-62 NSCLC it was greater than 100 µM; in the assay with OVCAR-5 ovarian it was greater than 100 µM.
Consider `O=C([CH-]C(=O)c1ccccc1)c1ccccc1.O=C([CH-]C(=O)c1ccccc1)c1ccccc1.[OH-].[OH-].[Ti+4]`, for which the GI50 with UO-31 renal is 59.3 µM; in the assay on 786-0 renal, 47.1 µM; in the assay with HT29 colon it was greater than 100 µM; with HOP-62 NSCLC it was 27.1 µM; in the assay with OVCAR-5 ovarian it was greater than 100 µM. In addition, the TGI in the assay with UO-31 renal, with 786-0 renal, in the assay with HT29 colon, with HOP-62 NSCLC and in the assay with OVCAR-5 ovarian was greater than 100 µM throughout.
Take `Cc1cc(N(CCC#N)CCC#N)ccc1/C=C1N=C(/C=C\c2ccccc2)N(c2ccc(Cl)cc2)C\1=O`: the TGI is greater than 53.9 µM in the assay on UO-31 renal; greater than 100 µM in the assay on HOP-92 NSCLC; greater than 100 µM in the assay on 786-0 renal; greater than 100 µM in the assay with HT29 colon; greater than 63.5 µM with HOP-62 NSCLC; greater than 100 µM in the assay on OVCAR-5 ovarian. For the same compound, the TGI with MDA-MB-231 breast, in the assay on BT-549 breast and with DU-145 prostate was greater than 100 µM throughout.
For `COc1ccc(C2[C@@H](Cl)C(=O)N2c2cc(OC)c(OC)c(OC)c2)cc1Cl` (stereo partly specified), the GI50 is 1.09 µM with UO-31 renal; 2.29 µM with HOP-92 NSCLC; 0.0389 µM in the assay on 786-0 renal; 0.221 µM with HT29 colon; 0.18 µM in the assay on HOP-62 NSCLC; 0.369 µM in the assay with OVCAR-5 ovarian. Also, the GI50 in the assay on MDA-MB-231 breast was 0.273 µM; with BT-549 breast it was 0.102 µM; in the assay with DU-145 prostate it was 0.37 µM. Besides, the TGI in the assay with UO-31 renal was 32.7 µM; with HOP-92 NSCLC, 85.9 µM; in the assay with 786-0 renal, 10.1 µM; in the assay on HT29 colon, 0.752 µM; with HOP-62 NSCLC, greater than 100 µM; with OVCAR-5 ovarian it was greater than 100 µM. Besides, the TGI in the assay with MDA-MB-231 breast is 26.1 µM; in the assay on BT-549 breast, 0.61 µM; with DU-145 prostate it was greater than 100 µM.
With `CC1NC(=O)C(NC(=O)c2cnc3ccccc3n2)COC(=O)C(C(C)C)N(C)C(=O)C2CSSCC(C(=O)N(C)C(C(C)C)C(=O)OCC(NC(=O)c3cnc4ccccc4n3)C(=O)NC(C)C(=O)N2C)N(C)C1=O` (stereo unspecified) (I: Quinoxaline2carbonyl-SA[NMeC][NMeV] / II: Quinoxaline2carbonyl-SA[NMeC][NMeV]; ester I:1-II:C, I:C-II:1; disulfide I:3-II:3; configuration not given here), the TGI is greater than 35.7 µM with HOP-92 NSCLC; 2.27 µM in the assay on 786-0 renal; less than 0.01 µM in the assay on MDA-MB-435; 2.27 µM in the assay with HOP-62 NSCLC; greater than 4.64 µM with OVCAR-5 ovarian; 0.294 µM with MDA-MB-231 breast. The compound also showed a TGI with BT-549 breast of less than 0.01 µM.
`CC1CN1c1c(C(=O)/C=C/c2ccccc2)c(-c2ccccc2)nn(C)c1=O` (stereo unspecified): the TGI with UO-31 renal was 29.1 µM; in the assay on HOP-92 NSCLC, 46.7 µM; with 786-0 renal, 30.6 µM; in the assay on HT29 colon it was 29.4 µM; in the assay on HOP-62 NSCLC, 46.3 µM; with OVCAR-5 ovarian, 37 µM.
As for `N#Cc1ccc(N=Cc2c([O-])ccc3ccccc23)cc1.[C-]#[O+].[C-]#[O+].[Ir]`, the GI50 with UO-31 renal is 13.2 µM; with HOP-92 NSCLC it was 3.23 µM; in the assay on 786-0 renal, 14.3 µM; with HT29 colon, 17.6 µM; in the assay on HOP-62 NSCLC, 20.6 µM; in the assay with OVCAR-5 ovarian, 21.7 µM. Also, the TGI worked out at 26.1 µM with UO-31 renal; 10.3 µM with HOP-92 NSCLC; 28 µM with 786-0 renal; 42.3 µM in the assay with HT29 colon; 42 µM with HOP-62 NSCLC; 36.5 µM in the assay with OVCAR-5 ovarian.

These data come from PubChem BioAssay (NCI).
